{
  "source": "patent US5660976A",
  "about": "“Method for preserving a liver by perfusion with or storage in a solution containing ascorbyl tocopheryl phosphodiester” (Senju Pharmaceutical Co., Ltd., priority 1994, dated 1997)",
  "test": "Acute toxicity (LD50) in rats",
  "details": "rat, in vivo",
  "description": "The compound for use as the active ingredient in the hepatic graft preservative composition and hepatic graft preserving method of this invention is a very safe substance with an extremely low toxic potential and, as such, can be used with advantage for the purposes of this invention. [e.g. the LD50 values of L-ascorbyl DL-α-tocopheryl phosphate potassium (hereinafter referred to briefly as EPC-K)≥5 g/kg p.o. (rats) and≥100 mg/kg i.v. (rats)].",
  "data": [
    {"smiles": "Cc1c(C)c2c(c(C)c1OP(=O)(O)OC1=C(O)[C@@H]([C@@H](O)CO)OC1=O)CCC(C)(CCCC(C)CCCC(C)CCCC(C)C)O2", "note": "(mixture of isomers) [EPC-K, L-Ascorbyl DL-α-tocopheryl phosphate potassium]", "values": [
      {"measurement": "LD50", "setting": "iv, i.v. (rats)", "value": "≥ 100", "unit": "mg/kg"},
      {"measurement": "LD50", "setting": "po, p.o. (rats)", "value": "≥ 5000", "unit": "mg/kg"}
    ]}
  ]
}
